# System: malondialdehyde (MDA)
# Assay: In vitro study of antioxidant effect (FeSO4-activated malondialdehyde in blood serum)
# Format: biochemical
# Conditions: 0.1 ml sample, 0.3 ml blood serum, FeSO4, 37° C. 15 min, MDA at 535 nm
# Description: Three samples were examined to evaluate antioxidant effectiveness. […] Method: evaluation was done by determining the intermediate product of the lipid oxidation process, malondialdehyde (MDA). Amount of MDA increases under the influence of ferrous sulfate (FeSO4), this moment was used as a model for the activated oxidation process. Sequence of analysis: 0.1 ml of test sample, 1 μmol of ferrous sulfate solution was added to 0.3 ml of blood serum and incubated at 37° C. for 15 min. Then 3 ml of 3% orthophosphoric acid and 1 ml of 0.6% thiobaric acid were added to the incubation mixture. The mixture was placed on a boiling water bath for one hour. Then 4 ml of butanol was added. The obtained mixture was centrifuged for 10 minutes at 3000 rpm. In the obtained supernatant, the optical density (E) was determined on a spectrometer on a wavelength of 535 nm. MDA concentration (C) was determined by the formula C=E×84.5 μmol/L. The difference between the background concentration of MDA and iron activated was 100%, while the antioxidant activity of the samples was conditionally expressed in %.
smiles,measurement,value
O=C(O)CN(CCN(CC(=O)O)CC(=O)O)CC(=O)O [Ethylenediaminetetraacetate],Relative Antioxidant Activity in %,92%
